According to patent US20030215817A1, “Modulation of gene expression in formation of fatty atherosclerotic lesions” (priority 2003, published 2003):
Counter-ions that a name gives are not always drawn.

Assays:
Assay type in all cases: in vivo, rabbit
[1] = system: REC1_3 (MspI ACGG 162) mRNA; assay: TOGA analysis, REC1_3
Description: (§1) To perform the studies, New Zealand male rabbits weighing 2.0-2.5 kg (Charles River, Calco, Italy) were used. The rabbits were divided into three groups and maintained in identical experimental conditions: (1) control group (n=15); rabbits fed a cholesterol-rich diet; (2) lercanidipine-treated group (n=15); rabbits fed a cholesterol-rich diet and also treated with lercanidipine (3 mg/kg/week); and (3) (R)-lercanidipine-treated group (n=5); rabbits fed a cholesterol-rich diet and also treated with the (R)-enantiomer of lercanidipine (3 mg/kg/week). After a 2 week period of subcutaneous, once a week, pretreatment with 3 mg/kg/week of lercanidipine or (R)-lercanidipine, the rabbits received a daily cholesterol supplement for up to 8 weeks or 2 weeks, respectively. In the following examples, use of the term “lercanidipine” refers to the racemic mixture of lercanidipine hydrochloride, whereas “(R)-lercanidipine” refers to the (R)-enantiomer of lercanidipine hydrochloride.
(§2) The mRNA from the above-described groups was isolated from aorta at different time points, resulting in the following mRNA samples: (1) Day 0 Control=no administered cholesterol, no lercanidipine; (2) Day 0+lercanidipine=no administered cholesterol, treatment with lercanipidine (2 weeks; 3 mg/kg/week); (3) Day 14 Control=cholesterol diet for two weeks, no lercanidipine; (4) Day 14+lercanidipine=cholesterol diet for two weeks, treatment with lercanidipine (four weeks; 3 mg/kg/week); (5) Week 8 Control=cholesterol diet for 8 weeks, no lercanidipine; and (6) Week 8+lercanidipine=cholesterol diet for 8 weeks, treatment with lercanidipine (10 weeks; 3 mg/kg/week). In addition, Day 14+(R)-lercanidipine mRNA samples were prepared from rabbits given a cholesterol diet for two weeks and treated with 3 mg/kg/week (R)-lercanidipine for four weeks.
(§3) Aorta mRNAs were prepared in the following manner. First, the aortas from each experimental group were retrieved and shredded using a polytron homogenizer. The samples were further homogenized using a teflon pestle, after which the cellular debris, nuclei, and blood cells were pelleted by centrifugation. The supernatants were extracted twice with phenol-chloroform-isoamyl alcohol and once with chloroform-isoamyl alcohol. RNA was then precipitated from the aqueous phase with ethanol. The poly A+ mRNA was prepared using standard methods of polyA selection known in the art (Schriber et al., J. Mol. Biol., 142:93-116 (1980)).
(§4) The isolated mRNA was analyzed using a method of simultaneous sequence-specific identification of mRNAs known as TOGA, described in U.S. Pat. No. 5,459,037 and U.S. Pat. No. 5,807,680, hereby incorporated herein by reference. In a preferred embodiment, the TOGA method further comprised an additional PCR step performed using a mixture of four 5′ PCR primers and cDNA templates prepared from a population of antisense cRNAs. A final PCR step that used a mixture of 256 5′ PCR primers produced PCR products that were cDNA fragments that corresponded to the 3′-region of the starting mRNA population. The produced PCR products were then identified by: (a) the initial 5′ sequence comprising the sequence remainder of the recognition site of the restriction endonuclease used to cut and isolate the 3′ region plus the sequence of the preferably four parsing bases immediately 3′ to the remainder of the recognition site, preferably the sequence of the entire fragment; and (b) the length of the fragment. […]

REC1_17 (TCGT 199) mRNA = assay: TOGA analysis, REC1_17
Description: as §1, §2, §3, §4

REC1_16 (TCGG 195) mRNA = assay: TOGA analysis, REC1_16
Description: as §1, §2, §3, §4

REC1_5 (AGTG 184) mRNA = assay: TOGA analysis, REC1_5
Description: as §1, §2, §3, §4

[2] = system: REC1_36 (digital address TTAG 155) mRNA; assay: TOGA analysis, REC1_36
Description: as §1, §2, §3
The isolated mRNA was analyzed using a method of simultaneous sequence-specific identification of mRNAs known as TOGA, described in U.S. Pat. No. 5,459,037 and U.S. Pat. No. 5,807,680, hereby incorporated herein by reference. In a preferred embodiment, the TOGA method further comprised an additional PCR step performed using a mixture of four 5′ PCR primers and cDNA templates prepared from a population of antisense cRNAs. A final PCR step that used a mixture of 256 5′ PCR primers produced PCR products that were cDNA fragments that corresponded to the 3′-region of the starting mRNA population. The produced PCR products were then identified by: (a) the initial 5′ sequence comprising the sequence remainder of the recognition site of the restriction endonuclease used to cut and isolate the 3′ region plus the sequence of the preferably four parsing bases immediately 3′ to the remainder of the recognition site, preferably the sequence of the entire fragment; and (b) the length of the fragment. These two parameters, sequence and fragment length, were used to compare the obtained PCR products to a database of known polynucleotide sequences. Since the length of the obtained PCR products includes known vector sequences at the 5′ and 3′ ends of the insert, the sequence of the insert provided in the sequence listing is shorter than the fragment length that forms part of the digital address.
The method yields Digital Sequence Tags (DSTs), that is, polynucleotides that are expressed sequence tags of the 3′ end of mRNAs. […]

[3] = system: REC1_13 (MspI GCCC 216) mRNA; assay: TOGA analysis, REC1_13
Description: as §1, §2, §3, §4

[4] = system: REC1_18 (MspI TGGT 241) mRNA; assay: TOGA analysis, REC1_18
Description: as §1, §2, §3, §4

[5] = system: REC1_20 (TTAC 210) mRNA, phosphofructo-1-kinase C isozyme; assay: TOGA analysis, REC1_20
Description: as §1, §2, §3, §4

[6] = system: REC1_12 (GCCC 232) mRNA, alpha smooth muscle actin; assay: TOGA analysis, REC1_12
Description: as §1, §2, §3, §4

[7] = system: REC1_21 (TTCC 165) mRNA, elastin gene; assay: TOGA analysis, REC1_21
Description: as §1, §2, §3, §4

[8] = system: REC1_6 (MspI ATCC 176) mRNA, ferritin light chain subunit; assay: TOGA analysis, REC1_6
Description: as §1, §2, §3, §4

[9] = TOGA, hypercholesterolemic plus lercanidipine racemate, eight weeks, H2 (normocholesterolemic)=1.0
[10] = REC1_36 TTAG 155, rabbit aorta, cholesterol 14 days
[11] = REC1_13 GCCC 216, rabbit aorta, 14 days cholesterol
[12] = REC1_18 TGGT 241, rabbit aorta, cholesterol 14 days
[13] = REC1_20 TTAC 210, rabbit aorta, cholesterol 14 days
[14] = REC1_12 GCCC 232, rabbit aorta, 14 days cholesterol
[15] = REC1_21 TTCC 165, rabbit aorta, cholesterol 14 days

COC(=O)C1=C(C)NC(C)=C(C(=O)OC(C)(C)CN(C)CCC(c2ccccc2)c2ccccc2)C1c1cccc([N+](=O)[O-])c1 (racemic) [lercanidipine, lercanidipine hydrochloride]
level of gene expression (TOGA), 8 Week hypercholesterol + Lercanidipine ([1]; REC1_3, ACGG 162, rabbit aorta, 8 weeks cholesterol + lercanidipine): 65
level of gene expression (TOGA), 14 Day hypercholesterol + Lercanidipine ([1]; REC1_3, ACGG 162, rabbit aorta, 14 days cholesterol + lercanidipine): 68
level of gene expression (TOGA), Normal + Lercanidipine ([1]; REC1_3, ACGG 162, rabbit aorta, no cholesterol, lercanidipine): 54
Relative Abundance Rec1_3, TOGA, F [1, 9]: 0.8
level of gene expression (TOGA), 8 Week hypercholesterol + Lercanidipine (REC1_17 (TCGT 199) mRNA; REC1_17 TCGT 199, rabbit aorta, 8 weeks cholesterol, lercanidipine): 262
level of gene expression (TOGA), 14 Day hypercholesterol + Lercanidipine (REC1_17 (TCGT 199) mRNA; REC1_17 TCGT 199, rabbit aorta, 14 days cholesterol, lercanidipine): 713
level of gene expression (TOGA), Normal + Lercanidipine (REC1_17 (TCGT 199) mRNA; REC1_17 TCGT 199, rabbit aorta, no cholesterol, lercanidipine): 1434
Relative Abundance Rec1_17, TOGA, F (REC1_17 (TCGT 199) mRNA; [9]): 0.15
level of gene expression (TOGA), 8 Week hypercholesterol + Lercanidipine (REC1_16 (TCGG 195) mRNA; REC1_16 TCGG 195, rabbit aorta, 8 weeks cholesterol, lercanidipine): 530
level of gene expression (TOGA), 14 Day hypercholesterol + Lercanidipine (REC1_16 (TCGG 195) mRNA; REC1_16 TCGG 195, rabbit aorta, 14 days cholesterol, lercanidipine): 1052
level of gene expression (TOGA), Normal + Lercanidipine (REC1_16 (TCGG 195) mRNA; REC1_16 TCGG 195, rabbit aorta, no cholesterol, lercanidipine): 2028
Relative Abundance Rec1_16, TOGA, F (REC1_16 (TCGG 195) mRNA; [9]): 0.2
level of gene expression (TOGA), 8 Week hypercholesterol + Lercanidipine (REC1_5 (AGTG 184) mRNA; REC1_5, AGTG 184, rabbit aorta, 8 weeks cholesterol + lercanidipine): 188
level of gene expression (TOGA), 14 Day hypercholesterol + Lercanidipine (REC1_5 (AGTG 184) mRNA; REC1_5, AGTG 184, rabbit aorta, 14 days cholesterol + lercanidipine): 699
level of gene expression (TOGA), Normal + Lercanidipine (REC1_5 (AGTG 184) mRNA; REC1_5, AGTG 184, rabbit aorta, no cholesterol, lercanidipine): 1034
Relative Abundance Rec1_5, TOGA, F (REC1_5 (AGTG 184) mRNA; [9]): 0.2
level of gene expression, 8 Week hypercholesterol + Lercanidipine ([2]; REC1_36 TTAG 155, rabbit aorta, cholesterol 8 weeks): 400
level of gene expression, 14 Day hypercholesterol + Lercanidipine [2, 10]: 683
level of gene expression, Normal + Lercanidipine ([2]; REC1_36 TTAG 155, rabbit aorta, no cholesterol): 186
Relative Abundance Rec1_36, TOGA, F [2, 9]: 0.5
level of gene expression of REC1_36 (TOGA) ([2]; aorta at day 14 of cholesterol administration, 3 mg/kg/week for 4 weeks): 683
level of gene expression of REC1_36 (TOGA) ([2]; aorta at week 8 of cholesterol administration, 3 mg/kg/week for 10 weeks): 400
level of gene expression, 8 Week hypercholesterol + Lercanidipine ([3]; REC1_13 GCCC 216, rabbit aorta, 8 weeks cholesterol): 4186
level of gene expression, 14 Day hypercholesterol + Lercanidipine [3, 11]: 542
level of gene expression, Normal + Lercanidipine ([3]; REC1_13 GCCC 216, rabbit aorta, no cholesterol): 575
Relative Abundance Rec1_13, TOGA, F [3, 9]: 5.9
level of gene expression, 8 Week hypercholesterol + Lercanidipine ([4]; REC1_18 TGGT 241, rabbit aorta, cholesterol 8 weeks): 935
level of gene expression, 14 Day hypercholesterol + Lercanidipine [4, 12]: 112
level of gene expression, Normal + Lercanidipine ([4]; REC1_18 TGGT 241, rabbit aorta, no cholesterol): 316
Relative Abundance Rec1_18, TOGA, F [4, 9]: 5.0
level of gene expression, 8 Week hypercholesterol + Lercanidipine ([5]; REC1_20 TTAC 210, rabbit aorta, cholesterol 8 weeks): 260
level of gene expression, 14 Day hypercholesterol + Lercanidipine [5, 13]: 348
level of gene expression, Normal + Lercanidipine ([5]; REC1_20 TTAC 210, rabbit aorta, no cholesterol): 607
Relative Abundance Rec1_20, TOGA, F [5, 9]: 0.3
level of gene expression, 8 Week hypercholesterol + Lercanidipine ([6]; REC1_12 GCCC 232, rabbit aorta, 8 weeks cholesterol): 622
level of gene expression, 14 Day hypercholesterol + Lercanidipine [6, 14]: 5657
level of gene expression, Normal + Lercanidipine ([6]; REC1_12 GCCC 232, rabbit aorta, no cholesterol): 4929
Relative Abundance Rec1_12, TOGA, F [6, 9]: 0.1
level of gene expression, 8 Week hypercholesterol + Lercanidipine ([7]; REC1_21 TTCC 165, rabbit aorta, cholesterol 8 weeks): 486
level of gene expression, 14 Day hypercholesterol + Lercanidipine [7, 15]: 1507
level of gene expression, Normal + Lercanidipine ([7]; REC1_21 TTCC 165, rabbit aorta, no cholesterol): 2064
Relative Abundance Rec1_21, TOGA, F [7, 9]: 0.2
level of gene expression (TOGA), 8 Week hypercholesterol + Lercanidipine ([8]; REC1_6, ATCC 176, rabbit aorta, 8 weeks cholesterol + lercanidipine): 1302
level of gene expression (TOGA), 14 Day hypercholesterol + Lercanidipine ([8]; REC1_6, ATCC 176, rabbit aorta, 14 days cholesterol + lercanidipine): 399
level of gene expression (TOGA), Normal + Lercanidipine ([8]; REC1_6, ATCC 176, rabbit aorta, no cholesterol, lercanidipine): 120
Relative Abundance Rec1_6, TOGA, F [8, 9]: 8.8

COC(=O)C1=C(C)NC(C)=C(C(=O)OC(C)(C)CN(C)CCC(c2ccccc2)c2ccccc2)[C@@H]1c1cccc([N+](=O)[O-])c1 [Lercanidipine (R)]
level of gene expression (TOGA), 14 Day hypercholesterol + Lercanidipine (R) ([1]; REC1_3, ACGG 162, rabbit aorta, 14 days cholesterol + (R)-enantiomer): 197
level of gene expression (TOGA), 14 Day hypercholesterol + Lercanidipine (R) (REC1_17 (TCGT 199) mRNA; REC1_17 TCGT 199, rabbit aorta, 14 days cholesterol, (R)-enantiomer): 1117
level of gene expression (TOGA), 14 Day hypercholesterol + Lercanidipine (R) (REC1_16 (TCGG 195) mRNA; REC1_16 TCGG 195, rabbit aorta, 14 days cholesterol, (R)-enantiomer): 1554
level of gene expression (TOGA), 14 Day hypercholesterol + Lercanidipine (R) (REC1_5 (AGTG 184) mRNA; REC1_5, AGTG 184, rabbit aorta, 14 days cholesterol + (R)-enantiomer): 643
level of gene expression, 14 Day hypercholesterol + Lercanidipine (R) [2, 10]: 500
level of gene expression, 14 Day hypercholesterol + Lercanidipine (R) [3, 11]: 404
level of gene expression, 14 Day hypercholesterol + Lercanidipine (R) [4, 12]: 330
level of gene expression, 14 Day hypercholesterol + Lercanidipine (R) [5, 13]: 669
level of gene expression, 14 Day hypercholesterol + Lercanidipine (R) [6, 14]: 3993
level of gene expression, 14 Day hypercholesterol + Lercanidipine (R) [7, 15]: 1574
level of gene expression (TOGA), 14 Day hypercholesterol + Lercanidipine (R) ([8]; REC1_6, ATCC 176, rabbit aorta, 14 days cholesterol + (R)-enantiomer): 365
